“Also recorded” adds a separate entry of the source. Like-named read-outs stand apart in the source and are kept apart here.
Experiments:
[1] = tested on: PC-3 human prostate tumor cells; assay: PC-3 tumor formation in athymic mice; assay type: in vivo
Experimental: Compound NCI-65828 was identified by HTS as an ANG inhibitor. […] Each compound was administered 6 times per week, in doses of 40 μg, 8 μg, and 1.6 μg (about 2, 0.4 and 0.08 mg/kg/day). The compound was dissolved in DMSO, and control mice received a corresponding volume of DMSO (4%, 0.8% and 0%). Another control group received saline.
Another in vivo mouse experiment was performed using 8 or 12 mice per group. The experimental group was administered PC-3 cells and NCI-65828, as intraperitoneal injections (40 μg and 8 μg). A control group of mice was administered PC-3 cells and a related compound that was known to be ineffective at inhibiting ANG enzymatic activity. Mice were evaluated for number of animals that remained tumor free as a function of time, at intervals of 3 days from days 14-42 following the initial injection.
Concentrated stocks of inhibitors were prepared in dimethylsulfoxide (DMSO), and the inhibitors were diluted into phosphate-buffered saline (PBS); the final DMSO concentration for the 40 μg and 20 μg doses was 4% in PBS, and that for the 8 μg and 4 μg doses was 0.8% in PBS. Statistical significance (P values) was determined from Mantel-Cox tests performed on Kaplan-Meier survivor functions. Results for inhibitor-treated groups were compared to results obtained with the appropriate DMSO control groups. A positive control group of mice, administered antisense DNA specific for the ANG gene in PBS (no DMSO), was also included. ANG antisense DNA was shown previously to be extremely effective in this tumor model.
Tumor cells from a human prostate cancer (PC-3) were injected subcutaneously (s.c.) in the shoulder of 6-7 week old athymic (nude) mice on day 0. Treatment with the indicated amount of inhibitor (in 100 μL) was given subcutaneously in the same area as the cells, 6 times per week, with the first injection 5-10 minutes prior to injection of the cells. The total dosage was 0.4 mg to 2 mg per kg per day.

angiogenin (ANG) = angiogenin (ANG) (Homo sapiens, UniProt P03950); assay: Inhibition of ANG ribonucleolytic activity, HPLC assay of oligonucleotide cleavage; assay type: biochemical; settings: 20 mM Hepes, 100 mM NaCl
angiogenin (ANG), sequence (P03950 25-147): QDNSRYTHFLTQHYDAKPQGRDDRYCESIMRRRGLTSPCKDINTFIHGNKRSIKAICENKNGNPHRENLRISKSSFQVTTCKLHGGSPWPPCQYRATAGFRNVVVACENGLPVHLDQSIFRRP
Experimental: Reaction mixtures with and without test compounds were chromatographed on a Mono Q anion-exchange column with an NaCl gradient in 10 mM Tris, pH 8. […] This information was used to calculate kcat/Km values, which were then fitted to the equation (kcat/Km)i=(kcat/Km)0/[…], where (kcat/Km)i and (kcat/Km)0 are defined as the values in the presence and absence of inhibitor, respectively, and [I] is defined as the inhibitor concentration. At least four concentrations (in a range of about 10 μM-above 100 μM) were used in the final hit confirmation in order to distinguish all true hits.
Chemical structures of selected compounds are shown in these Tables and in FIGS. 4 and 5.

[2] = tested on: HT-29 human colonic adenocarcinoma cells; assay: HT-29 tumor formation in athymic mice; assay type: in vivo; settings: local treatment s.c. 40 μg/day, 6×/week
Experimental: Mice were examined 2×/week for palpable tumors. Treatment doses: 40 μg/day (A and C); 8 μg/day (B). n=8 for all groups except the vehicle controls in A and B, where n=12.

E. coli RNase I = E. coli RNase I (Escherichia coli, UniProt P21338); assay: Intactness of total RNA challenged with purified RNase; assay type: biochemical; settings: 100 uM inhibitor; E. coli RNase I 7 ng/ul; 100 ng/ul mouse liver total RNA, 23° C., 4 min
E. coli RNase I, sequence (P21338 24-268): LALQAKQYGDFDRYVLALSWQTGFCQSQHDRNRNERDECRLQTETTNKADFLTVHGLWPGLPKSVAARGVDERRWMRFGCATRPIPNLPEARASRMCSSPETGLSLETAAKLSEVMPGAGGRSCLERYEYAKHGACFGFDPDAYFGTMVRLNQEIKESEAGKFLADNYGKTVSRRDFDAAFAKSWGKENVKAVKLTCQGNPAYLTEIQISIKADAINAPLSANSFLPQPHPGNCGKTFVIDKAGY

[3] = PC-3 s.c., 8 μg s.c. 6 times per week
[4] = PC-3 s.c., 40 μg s.c. 6 times per week
[5] = pH 7.0, 37° C., read-out: Ki for inhibition of the ribonucleolytic activity of angiogenin
[6] = inhibition of ANG-catalyzed cleavage of an RNA oligonucleotide, 37° C., read-out: KI

Compound | Appearance of tumors (FIGS. 1A and 1B) ([1]; PC-3, 40 μg and 8 μg, days 14-42, vs controls) | Rate of tumor development (preliminary test) ([1]; PC-3, s.c. 6 times per week, doses of 40 μg, 8 μg and 1.6 μg, vs control groups) | Percentage of Tumor-Bearing Mice, day 14 [1, 3] | Percentage of Tumor-Bearing Mice, day 17 [1, 3] | Percentage of Tumor-Bearing Mice, day 21 [1, 3] | Percentage of Tumor-Bearing Mice, day 24 [1, 3] | Percentage of Tumor-Bearing Mice, day 32 [1, 3] | Percentage of Tumor-Bearing Mice, day 35 [1, 3] | Percentage of Tumor-Bearing Mice, day 14 [1, 4] | Percentage of Tumor-Bearing Mice, day 17 [1, 4] | Percentage of Tumor-Bearing Mice, day 21 [1, 4] | Percentage of Tumor-Bearing Mice, day 24 [1, 4] | Percentage of Tumor-Bearing Mice, day 32 [1, 4] | Percentage of Tumor-Bearing Mice, day 35 [1, 4] | Time of appearance of tumors (Example 3, Table 1) ([1]; PC-3 s.c., treatment s.c. 6 times per week) | Ki (angiogenin (ANG); [5]) | Ki (angiogenin (ANG); [6]) | Formation of tumors (FIG. 1C) [2] | Protection of total RNA from degradation (E. coli RNase I)
Nc1ccc(/N=N/c2ccc(-c3ccc(O)cc3)cc2)c2ccc(S(=O)(=O)O)cc12 [NCI-65828, 8-amino-5-(4′-hydroxybiphenyl-4-ylazo)naphthalene-2-sulfonate] | delay or prevention; also recorded: delayed the appearance of tumors | developed tumors at a slower rate | 0% | 38% | 50% | 100% | 100% | 100% | 0% | 25% | 50% | 100% | 100% | 100% | delayed considerably the time of appearance of tumors | 81 µM | 81 µM | delay or prevention; also recorded: significantly delayed the formation of tumors | 
Benzopurpurin B |  |  |  |  |  |  |  |  |  |  |  |  |  |  |  | 5 µM | 5 µM |  | significant protection from RNA degradation
